Inhibition and IC50 data for twelve molecules are collected here from ChEMBL document CHEMBL1141600, “Biphenyl versus phenylpyridazine derivatives: the role of the heterocycle in a series of acyl-CoA:cholesterol acyl transferase inhibitors” (J Med Chem, 2008).

In assay [1] the target is T1, Sterol O-acyltransferase 2 (Homo sapiens) (UniProt O75908).
T1 sequence (whole entry): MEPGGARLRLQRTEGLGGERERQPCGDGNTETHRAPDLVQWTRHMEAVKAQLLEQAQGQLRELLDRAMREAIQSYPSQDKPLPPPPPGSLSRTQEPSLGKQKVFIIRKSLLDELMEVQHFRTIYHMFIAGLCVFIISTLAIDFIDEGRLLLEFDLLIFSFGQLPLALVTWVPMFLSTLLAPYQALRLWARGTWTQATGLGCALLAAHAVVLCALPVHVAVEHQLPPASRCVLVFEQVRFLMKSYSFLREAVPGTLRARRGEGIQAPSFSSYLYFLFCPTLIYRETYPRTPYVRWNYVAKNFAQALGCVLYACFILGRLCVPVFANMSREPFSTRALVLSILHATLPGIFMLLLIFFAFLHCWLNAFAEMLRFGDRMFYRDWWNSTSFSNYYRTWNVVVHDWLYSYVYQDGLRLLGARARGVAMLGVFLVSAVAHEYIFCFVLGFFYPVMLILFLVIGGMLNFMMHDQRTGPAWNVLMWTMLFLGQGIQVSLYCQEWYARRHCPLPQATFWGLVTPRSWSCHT
The experiment in a line: Inhibition of human ACAT2 expressed in insect Hi5 cells at 50 uM. Particulars: BTI-TN-5B1-4.

Assay [2] addresses T2, Sterol O-acyltransferase 2 (Homo sapiens, UniProt O75908).
T2 sequence (O75908 whole entry): T1 sequence (whole entry)
Put plainly: Inhibition of human ACAT2 expressed in insect Hi5 cells. Set-up: species or system BTI-TN-5B1-4.

Assay [3] concerns the target T1, Sterol O-acyltransferase 2 (Homo sapiens). Put plainly: Inhibition of human ACAT2 expressed in insect Hi5 cells at 0.5 uM. The conditions noted are these: BTI-TN-5B1-4.
The target of assay [4] is T3, Sterol O-acyltransferase 1 (Homo sapiens) (UniProt P35610).
T3 sequence (whole entry): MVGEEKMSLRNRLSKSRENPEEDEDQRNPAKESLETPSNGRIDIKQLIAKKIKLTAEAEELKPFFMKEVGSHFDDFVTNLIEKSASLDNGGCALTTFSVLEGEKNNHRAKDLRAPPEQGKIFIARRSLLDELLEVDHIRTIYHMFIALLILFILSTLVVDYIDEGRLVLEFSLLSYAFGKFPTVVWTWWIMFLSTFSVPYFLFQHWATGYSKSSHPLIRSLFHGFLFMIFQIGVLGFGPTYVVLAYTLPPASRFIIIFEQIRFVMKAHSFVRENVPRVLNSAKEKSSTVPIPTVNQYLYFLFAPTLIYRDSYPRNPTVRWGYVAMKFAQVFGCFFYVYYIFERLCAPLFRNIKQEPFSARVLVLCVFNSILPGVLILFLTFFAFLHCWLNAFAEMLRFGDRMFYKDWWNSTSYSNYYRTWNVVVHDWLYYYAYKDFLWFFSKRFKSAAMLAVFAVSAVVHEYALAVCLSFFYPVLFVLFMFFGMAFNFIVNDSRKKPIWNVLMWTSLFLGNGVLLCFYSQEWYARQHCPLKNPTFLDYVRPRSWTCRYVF
Put plainly: Inhibition of human ACAT1 expressed in insect Hi5 cells at 0.5 uM. Particulars: BTI-TN-5B1-4.

In the case of `CCCCCCCCCNc1cccc(-c2ccccc2)c1`, the inhibition – broadly, the drop in the measured response relative to a control, in per cent – in assay [1] was -8%.

Regarding `CCCCCCCC(=O)Nc1ccccc1-c1ccccc1`, the inhibition in assay [1] came to 39%. Further, in assay [2], the IC50 (commonly the concentration that inhibits the measured activity by half) was 230 µM.

Regarding `CCCCCCCC(=O)Nc1cccc(-c2ccccc2)c1`, the inhibition in assay [1] was -4%.

Consider `CCCCCCCCC(=O)Nc1ccccc1-c1ccccc1`, for which, in assay [1], the inhibition was 27%. The molecule further registered an IC50 in assay [2] of 414 µM.

With `CCCCCCCC(=O)Nc1ccc(-c2ccccc2)cc1`, the inhibition in assay [1] worked out at 11%.

As to `CCCCCCCCC(=O)Nc1cccc(-c2ccccc2)c1`, the inhibition in assay [1] was -6%.

For the molecule `CCCCCCCCCNc1ccc(-c2ccccc2)cc1`, in assay [1], the inhibition was 18%.

For the molecule `CCCCCCCC/C=C\CCC(CCCC(C(=O)Nc1ccccc1)C(C)C)C(C)C` (stereo not given), the inhibition in assay [3] stood at 47%; in assay [4], 53%.

Take `CCCCCCCCNc1ccc(-c2ccccc2)cc1`: in assay [1], the inhibition worked out at 6%.

With `CCCCCCCCCNc1ccccc1-c1ccccc1`, the inhibition in assay [1] was -1%.

For the molecule `CCCCCCCCC(=O)Nc1ccc(-c2ccccc2)cc1`, the inhibition in assay [1] was determined as 20%.

`CCCCCCCCNc1ccccc1-c1ccccc1`: the inhibition in assay [1] was -4%.
